Reference: ChEMBL document CHEMBL5465560, “Selectivity Literature for EUbOPEN Chemogenomic Library” (2024)

Key:
[1] = biological target: Mitogen-activated protein kinase 14 (Homo sapiens, UniProt Q16539); conditions: at 10 µM
[2] = system: Epidermal growth factor receptor (Homo sapiens), P00533 [UNDEFINED MUTATION]; assay: Selectivity interaction (KinomeScan (DiscoverX)) EUB0000092b EGFR; conditions: at 10 µM
[3] = system: Epidermal growth factor receptor (Homo sapiens), P00533 [G719S]; assay: (§1) Selectivity interaction (KinomeScan (DiscoverX)) EUB0000655a EGFR; conditions: at 10 µM
[4] = system: Epidermal growth factor receptor (Homo sapiens), P00533 [L861Q]; assay: as §1; conditions: at 10 µM
Chain of Epidermal growth factor receptor (Homo sapiens), P00533 [L861Q] (P00533 whole entry L861Q): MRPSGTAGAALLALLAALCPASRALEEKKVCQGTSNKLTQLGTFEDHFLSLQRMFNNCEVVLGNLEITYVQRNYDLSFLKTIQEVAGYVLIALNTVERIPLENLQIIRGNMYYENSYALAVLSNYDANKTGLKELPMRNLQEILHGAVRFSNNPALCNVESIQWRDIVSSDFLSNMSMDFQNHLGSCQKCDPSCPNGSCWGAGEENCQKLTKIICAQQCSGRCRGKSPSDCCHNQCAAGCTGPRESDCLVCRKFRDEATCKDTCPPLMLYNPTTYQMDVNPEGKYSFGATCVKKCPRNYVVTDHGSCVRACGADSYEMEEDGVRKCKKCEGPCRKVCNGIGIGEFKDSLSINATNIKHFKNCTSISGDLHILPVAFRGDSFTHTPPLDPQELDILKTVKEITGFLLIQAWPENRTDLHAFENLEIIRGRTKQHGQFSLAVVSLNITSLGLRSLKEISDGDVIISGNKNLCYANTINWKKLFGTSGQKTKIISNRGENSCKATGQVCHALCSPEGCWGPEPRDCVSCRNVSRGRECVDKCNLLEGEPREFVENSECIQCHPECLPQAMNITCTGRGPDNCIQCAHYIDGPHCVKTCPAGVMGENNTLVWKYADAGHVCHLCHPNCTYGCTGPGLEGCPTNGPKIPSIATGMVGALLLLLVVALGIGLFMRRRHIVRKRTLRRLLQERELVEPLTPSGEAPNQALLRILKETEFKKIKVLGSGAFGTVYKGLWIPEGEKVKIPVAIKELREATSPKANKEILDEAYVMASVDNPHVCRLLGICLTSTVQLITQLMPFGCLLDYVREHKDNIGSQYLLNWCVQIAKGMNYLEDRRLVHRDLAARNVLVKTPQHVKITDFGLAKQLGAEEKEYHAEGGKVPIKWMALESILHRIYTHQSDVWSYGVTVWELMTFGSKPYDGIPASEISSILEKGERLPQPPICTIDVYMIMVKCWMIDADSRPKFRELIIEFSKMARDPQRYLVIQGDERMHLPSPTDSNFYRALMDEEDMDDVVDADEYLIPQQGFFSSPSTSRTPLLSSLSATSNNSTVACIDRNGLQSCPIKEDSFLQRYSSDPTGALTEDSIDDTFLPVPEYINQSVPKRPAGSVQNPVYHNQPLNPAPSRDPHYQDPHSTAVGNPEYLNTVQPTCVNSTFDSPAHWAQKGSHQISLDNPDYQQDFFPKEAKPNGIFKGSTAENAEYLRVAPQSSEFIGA

[5] = system: Epidermal growth factor receptor (Homo sapiens), P00533 [L858R,T790M]; assay: as §1; conditions: at 10 µM
[6] = system: Epidermal growth factor receptor (Homo sapiens), P00533 [UNDEFINED MUTATION]; assay: as §1; conditions: at 10 µM
[7] = system: Epidermal growth factor receptor (Homo sapiens), P00533 [G719C]; assay: as §1; conditions: at 10 µM
[8] = biological target: Epidermal growth factor receptor (Homo sapiens, UniProt P00533); assay: as §1; conditions: at 10 µM
[9] = system: Epidermal growth factor receptor (Homo sapiens), P00533 [T790M]; assay: as §1; conditions: at 10 µM
Chain of Epidermal growth factor receptor (Homo sapiens), P00533 [T790M] (P00533 whole entry T790M): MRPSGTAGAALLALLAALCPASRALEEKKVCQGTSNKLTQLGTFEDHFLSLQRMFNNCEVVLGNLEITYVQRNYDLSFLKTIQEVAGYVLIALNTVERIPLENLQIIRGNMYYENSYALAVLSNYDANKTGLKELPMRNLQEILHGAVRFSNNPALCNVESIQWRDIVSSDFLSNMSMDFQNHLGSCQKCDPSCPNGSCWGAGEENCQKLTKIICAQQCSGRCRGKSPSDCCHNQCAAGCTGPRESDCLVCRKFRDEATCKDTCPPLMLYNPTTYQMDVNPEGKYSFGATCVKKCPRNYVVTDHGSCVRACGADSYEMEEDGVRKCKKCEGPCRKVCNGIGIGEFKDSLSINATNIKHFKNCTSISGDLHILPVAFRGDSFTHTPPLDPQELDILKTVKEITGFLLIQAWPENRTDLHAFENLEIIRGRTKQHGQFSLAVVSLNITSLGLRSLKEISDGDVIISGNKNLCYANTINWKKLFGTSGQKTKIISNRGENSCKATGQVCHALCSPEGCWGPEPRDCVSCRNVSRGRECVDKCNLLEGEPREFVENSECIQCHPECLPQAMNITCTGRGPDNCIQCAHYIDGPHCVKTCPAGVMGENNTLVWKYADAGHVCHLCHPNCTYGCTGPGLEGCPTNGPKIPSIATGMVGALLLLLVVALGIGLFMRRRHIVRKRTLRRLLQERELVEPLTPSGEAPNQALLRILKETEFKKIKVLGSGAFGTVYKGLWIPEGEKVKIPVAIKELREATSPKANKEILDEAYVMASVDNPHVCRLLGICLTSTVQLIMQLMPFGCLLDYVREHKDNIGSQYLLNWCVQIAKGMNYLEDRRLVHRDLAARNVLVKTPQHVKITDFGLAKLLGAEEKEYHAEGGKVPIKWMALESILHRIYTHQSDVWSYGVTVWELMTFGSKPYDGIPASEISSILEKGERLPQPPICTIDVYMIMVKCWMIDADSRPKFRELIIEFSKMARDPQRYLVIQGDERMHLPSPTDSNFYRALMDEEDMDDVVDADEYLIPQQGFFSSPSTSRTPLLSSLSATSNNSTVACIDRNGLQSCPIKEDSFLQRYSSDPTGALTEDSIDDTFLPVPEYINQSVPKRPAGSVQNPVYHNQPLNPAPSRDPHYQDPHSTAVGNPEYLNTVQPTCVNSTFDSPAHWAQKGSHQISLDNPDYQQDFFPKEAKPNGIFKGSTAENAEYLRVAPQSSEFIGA

[10] = system: Epidermal growth factor receptor (Homo sapiens), P00533 [L858R]; assay: as §1; conditions: at 10 µM
[11] = biological target: T1, Cyclin-G-associated kinase (Homo sapiens) (UniProt O14976); assay: Selectivity interaction (KinomeScan (DiscoverX)) EUB0001079a GAK; conditions: at 1 µM
T1 sequence (whole entry): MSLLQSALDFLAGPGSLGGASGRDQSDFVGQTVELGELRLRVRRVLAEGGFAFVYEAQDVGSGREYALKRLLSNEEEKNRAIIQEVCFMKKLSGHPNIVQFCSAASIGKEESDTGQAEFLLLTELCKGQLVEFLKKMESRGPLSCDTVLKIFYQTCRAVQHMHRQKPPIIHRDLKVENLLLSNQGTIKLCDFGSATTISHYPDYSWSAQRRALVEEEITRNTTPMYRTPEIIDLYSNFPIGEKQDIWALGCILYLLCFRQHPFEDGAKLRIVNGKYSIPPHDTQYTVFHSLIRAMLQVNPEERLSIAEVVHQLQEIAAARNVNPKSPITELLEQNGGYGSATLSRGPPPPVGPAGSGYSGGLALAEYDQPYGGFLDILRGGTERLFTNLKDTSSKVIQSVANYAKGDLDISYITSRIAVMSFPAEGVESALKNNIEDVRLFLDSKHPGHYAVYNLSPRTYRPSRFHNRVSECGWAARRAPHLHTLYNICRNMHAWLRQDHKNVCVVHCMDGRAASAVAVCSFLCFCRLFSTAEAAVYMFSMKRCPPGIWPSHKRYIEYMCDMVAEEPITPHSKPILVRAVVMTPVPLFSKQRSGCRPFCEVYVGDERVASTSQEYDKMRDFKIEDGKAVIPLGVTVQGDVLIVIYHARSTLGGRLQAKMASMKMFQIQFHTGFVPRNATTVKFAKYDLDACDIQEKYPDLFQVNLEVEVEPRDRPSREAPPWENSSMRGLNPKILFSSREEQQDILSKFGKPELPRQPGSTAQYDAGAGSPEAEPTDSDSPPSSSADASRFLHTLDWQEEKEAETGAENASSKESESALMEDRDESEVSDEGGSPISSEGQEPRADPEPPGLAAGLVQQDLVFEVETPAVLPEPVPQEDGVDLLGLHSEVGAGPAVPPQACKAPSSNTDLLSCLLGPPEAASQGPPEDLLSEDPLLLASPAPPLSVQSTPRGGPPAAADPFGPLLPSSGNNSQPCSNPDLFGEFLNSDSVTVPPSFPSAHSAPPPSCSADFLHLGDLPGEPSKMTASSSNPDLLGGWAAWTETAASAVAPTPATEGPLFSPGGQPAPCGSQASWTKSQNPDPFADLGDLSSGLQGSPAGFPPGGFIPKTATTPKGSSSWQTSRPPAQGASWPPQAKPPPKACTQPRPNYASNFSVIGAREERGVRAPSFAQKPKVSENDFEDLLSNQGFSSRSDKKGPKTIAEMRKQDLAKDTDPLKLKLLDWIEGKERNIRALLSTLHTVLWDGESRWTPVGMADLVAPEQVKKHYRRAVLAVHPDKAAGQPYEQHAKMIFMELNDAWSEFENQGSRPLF

[12] = biological target: T2, MAP kinase-activated protein kinase 5 (Homo sapiens) (UniProt Q8IW41); assay: Selectivity interaction (Kinase panel (Invitrogen)) EUB0000639a MAPKAPK5; conditions: at 200 nM
T2 sequence (whole entry): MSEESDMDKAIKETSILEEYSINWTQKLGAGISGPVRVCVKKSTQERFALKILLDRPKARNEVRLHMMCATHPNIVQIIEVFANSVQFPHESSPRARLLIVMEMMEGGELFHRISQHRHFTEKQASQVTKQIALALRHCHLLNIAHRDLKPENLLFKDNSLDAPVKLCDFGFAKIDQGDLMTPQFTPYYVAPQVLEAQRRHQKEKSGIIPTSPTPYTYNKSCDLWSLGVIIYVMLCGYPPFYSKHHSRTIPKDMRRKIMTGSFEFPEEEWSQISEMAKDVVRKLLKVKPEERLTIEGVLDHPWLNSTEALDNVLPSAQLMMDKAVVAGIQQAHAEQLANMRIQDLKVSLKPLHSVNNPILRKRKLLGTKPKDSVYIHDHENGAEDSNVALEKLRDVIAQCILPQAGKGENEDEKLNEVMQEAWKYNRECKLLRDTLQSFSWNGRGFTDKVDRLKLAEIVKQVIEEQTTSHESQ

[13] = biological target: Serine/threonine-protein kinase tousled-like 2 (Homo sapiens) (UniProt Q86UE8); assay: Selectivity interaction (ActivX KiNativ screen (kinase selectivity in THP-1 cell lysates)) EUB0000639a TLK2; type: subcellular; conditions: lysate, at 0.04 µM
[14] = biological target: Serine/threonine-protein kinase 25 (Homo sapiens) (UniProt O00506); assay: Selectivity interaction (KinomeScan (DiscoverX)) EUB0001049a STK25; conditions: at 1 µM
Chain of Serine/threonine-protein kinase 25 (Homo sapiens) (O00506 whole entry, looked up): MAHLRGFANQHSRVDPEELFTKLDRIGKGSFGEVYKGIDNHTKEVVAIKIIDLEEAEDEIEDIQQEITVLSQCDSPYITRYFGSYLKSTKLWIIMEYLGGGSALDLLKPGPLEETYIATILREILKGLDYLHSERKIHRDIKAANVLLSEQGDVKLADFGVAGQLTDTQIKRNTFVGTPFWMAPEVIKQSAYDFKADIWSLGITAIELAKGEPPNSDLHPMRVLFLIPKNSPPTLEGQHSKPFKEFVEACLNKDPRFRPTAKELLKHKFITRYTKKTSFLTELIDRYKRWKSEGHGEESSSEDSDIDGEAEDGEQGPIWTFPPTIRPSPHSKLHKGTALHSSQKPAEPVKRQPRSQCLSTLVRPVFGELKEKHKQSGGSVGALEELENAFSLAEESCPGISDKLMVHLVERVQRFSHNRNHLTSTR

[15] = biological target: T3, Dual specificity mitogen-activated protein kinase kinase 3 (Homo sapiens) (UniProt P46734); assay: Selectivity interaction (KinomeScan (DiscoverX)) EUB0000618a MAP2K3; conditions: at 10 µM
T3 sequence (whole entry): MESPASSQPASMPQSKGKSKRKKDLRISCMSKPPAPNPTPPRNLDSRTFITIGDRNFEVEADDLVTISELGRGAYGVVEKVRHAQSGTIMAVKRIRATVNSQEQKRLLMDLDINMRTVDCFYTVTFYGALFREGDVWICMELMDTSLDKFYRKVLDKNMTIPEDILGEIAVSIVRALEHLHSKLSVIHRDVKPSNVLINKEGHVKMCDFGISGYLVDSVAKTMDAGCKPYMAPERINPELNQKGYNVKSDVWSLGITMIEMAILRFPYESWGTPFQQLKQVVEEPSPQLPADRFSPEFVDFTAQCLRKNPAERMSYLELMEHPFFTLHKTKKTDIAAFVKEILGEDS

[16] = biological target: Non-receptor tyrosine-protein kinase TYK2 (Homo sapiens, UniProt P29597); assay: Selectivity interaction (KinomeScan (DiscoverX)) EUB0000618a TYK2; conditions: at 10 µM
[17] = biological target: Serine/threonine-protein kinase 25 (Homo sapiens) (UniProt O00506); assay: Selectivity interaction (ActivX KiNativ screen (ex vivo kinase selectivity in human PBMCs)) EUB0001619a STK25; type: cell-based; conditions: PBMC, at 1 µM

Chain of Epidermal growth factor receptor (Homo sapiens), P00533 [UNDEFINED MUTATION] (P00533 whole entry, looked up, stated change not applied): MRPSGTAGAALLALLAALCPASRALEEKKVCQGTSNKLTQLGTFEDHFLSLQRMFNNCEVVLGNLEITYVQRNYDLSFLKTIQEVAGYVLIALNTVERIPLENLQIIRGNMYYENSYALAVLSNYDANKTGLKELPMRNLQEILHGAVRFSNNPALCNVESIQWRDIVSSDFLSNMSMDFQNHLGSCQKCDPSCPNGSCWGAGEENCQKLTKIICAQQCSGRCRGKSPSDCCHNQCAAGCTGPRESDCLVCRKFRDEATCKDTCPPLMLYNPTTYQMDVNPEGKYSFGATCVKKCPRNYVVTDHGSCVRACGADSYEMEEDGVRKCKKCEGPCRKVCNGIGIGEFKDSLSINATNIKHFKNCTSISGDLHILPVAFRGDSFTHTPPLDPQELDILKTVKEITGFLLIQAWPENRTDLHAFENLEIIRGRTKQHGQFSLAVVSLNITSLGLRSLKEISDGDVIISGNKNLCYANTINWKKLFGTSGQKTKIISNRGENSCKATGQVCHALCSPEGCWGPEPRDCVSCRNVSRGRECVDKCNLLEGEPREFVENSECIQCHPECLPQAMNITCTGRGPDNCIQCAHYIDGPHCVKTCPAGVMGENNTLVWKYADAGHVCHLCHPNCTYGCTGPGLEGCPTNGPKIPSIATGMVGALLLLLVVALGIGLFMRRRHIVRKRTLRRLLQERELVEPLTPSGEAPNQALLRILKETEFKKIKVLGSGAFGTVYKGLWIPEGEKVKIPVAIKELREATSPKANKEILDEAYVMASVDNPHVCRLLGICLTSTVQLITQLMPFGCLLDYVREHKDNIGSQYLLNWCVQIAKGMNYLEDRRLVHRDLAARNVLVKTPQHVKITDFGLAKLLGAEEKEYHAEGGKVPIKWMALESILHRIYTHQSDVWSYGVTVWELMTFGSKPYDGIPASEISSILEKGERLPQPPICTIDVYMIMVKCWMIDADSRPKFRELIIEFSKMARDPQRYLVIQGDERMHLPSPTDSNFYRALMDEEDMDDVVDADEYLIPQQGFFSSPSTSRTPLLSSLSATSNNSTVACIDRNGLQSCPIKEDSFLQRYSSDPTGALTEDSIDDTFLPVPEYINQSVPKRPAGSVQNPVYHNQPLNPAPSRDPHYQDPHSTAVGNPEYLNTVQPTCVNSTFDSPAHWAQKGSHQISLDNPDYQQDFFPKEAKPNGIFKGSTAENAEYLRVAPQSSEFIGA
Chain of Mitogen-activated protein kinase 14 (Q16539 whole entry): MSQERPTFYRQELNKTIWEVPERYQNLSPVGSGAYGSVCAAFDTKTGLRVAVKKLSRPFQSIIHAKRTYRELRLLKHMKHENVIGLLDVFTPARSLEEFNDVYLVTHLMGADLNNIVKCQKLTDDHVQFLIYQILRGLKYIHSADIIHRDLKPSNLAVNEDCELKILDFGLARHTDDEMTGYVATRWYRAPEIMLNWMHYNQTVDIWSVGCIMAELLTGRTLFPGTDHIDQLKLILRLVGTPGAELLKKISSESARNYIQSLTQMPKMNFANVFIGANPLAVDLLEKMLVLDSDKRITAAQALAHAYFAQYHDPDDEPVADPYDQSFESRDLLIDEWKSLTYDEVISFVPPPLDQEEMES

**Q.** How did the % of control [1] turn out when `CCN(CC)CCCCNc1ncc2cc(-c3cc(OC)cc(OC)c3)c(NC(=O)NC(C)(C)C)nc2n1` was run?
**A.** 100%

**Q.** For `CCC(=O)N1CCN(c2ccc(-n3c(=O)ccc4cnc5ccc(-c6cnc7ccccc7c6)cc5c43)cc2C(F)(F)F)CC1`, which % of control [2] is on record?
**A.** 80%

**Q.** How did the % of control [3] turn out when `CN(C)CCOc1ccc(-c2nc(-c3ccncc3)c(-c3ccc4c(c3)CC/C4=N\O)[nH]2)cc1` was run?
**A.** 70%

**Q.** And the % of control [4]?
**A.** 34%

**Q.** And the % of control [5]?
**A.** 93%

**Q.** And the % of control [6]?
**A.** 100%

**Q.** What about the % of control [7] of the same compound?
**A.** 59%

**Q.** What about the % of control [8] of the same compound?
**A.** 95%

**Q.** And the % of control [9]?
**A.** 34%

**Q.** What about the % of control [10] of the same compound?
**A.** 54%

**Q.** Which % of control [11] does the source give for `Nc1cnc(N2CCc3cc(S(=O)(=O)Nc4c(F)cc(Cl)cc4F)cc(N4CCCC4=O)c32)nc1` [TP-020n] here?
**A.** 100%

**Q.** How did the % of inhibition [12] turn out when `CC[C@@H]1[C@H](F)C(=O)N[C@@H]1COc1nccc2cc(C(N)=O)c(OC)cc12` [ZIMLOVISERTIB] was run?
**A.** 8.71%

**Q.** What about the % of inhibition [13] of the same compound?
**A.** 9.2%

**Q.** Which % of control [14] does the source give for `COc1cc(Nc2nc(C)cc(-c3cnn4nc(OC)ccc34)n2)cc(C(F)(F)F)c1` here?
**A.** 91%

**Q.** With `O[C@H]1CC[C@H](Nc2ncc3nc(Nc4c(F)cc(F)cc4F)n([C@H]4CCOC4)c3n2)CC1` as the compound, how does the % of control [15] read?
**A.** 43%

**Q.** What about the % of control [16] of the same compound?
**A.** 81%

**Q.** Which % of inhibition [17] does the source give for `N#Cc1cccc(-c2c[nH]c3ncnc(N4CCOCC4)c23)c1` here?
**A.** 39%
